What is called solubility is how much of the substance goes into solution per volume. Low readings indicate a poorly soluble substance, high ones a readily soluble substance.

No end group written: not given here. *: point of attachment. undeca‑saccharide = not defined here; Decanoyl = CCCCCCCCCC(=O)* A value given as a limit tells only on which side of the number the result lay.

From US20220323548A1 (priority 2019, published 2022) come the findings set out here.

Series [1] concerns the target human GLP-1R (Homo sapiens, UniProt P43220). Put plainly: GLP-1 receptor luciferase reporter assay (part I, glycosylated analogs). The series is classed as cell-based. The settings on record: CV-1 cells transfected with human GLP-1R and CRE, Table 2. For orientation: In a reporter assay the amount or activity of a reporter protein is the signal.
Experimental: Specifically, the fibroblast cell line CV-1 (1×10^4 cells/ml, Korea Cell Line Bank) was cultured on a 96-well white cell culture plate for 24 hours, and then human GLP-1R (pcDNA3.1_hGLP-1R) and cAMP response element (CRE, pcDNA3.1_hCRE) were added to perform transfection. After 24 hours, the medium was exchanged with a serum-free medium, followed by culture for 16 hours, and then each analog was treated for 6 hours. The expression level of luciferase, a reporter gene, by activated GLP-1R, was quantified by a luminometer, and the results are shown in Table 2.
The test system of a further series is rat islets. The series can be described thus: Glucose-dependent insulin secretion from rat islets, rat insulin ELISA (part I). The series is classed as cell-based. The settings on record: 28 mM glucose. For orientation: ELISA stands for enzyme-linked immunosorbent assay.
A short description of a further series: Solubility by HPLC. The conditions noted are these: at 10 mg/ml. The series is classed as physicochemical.
The target of series [2] is human GLP-1R (human, UniProt P43220 24-463). Put plainly: cell-based or functional assay.

human GLP-1R (Homo sapiens, UniProt P43220), sequence (P43220 24-463): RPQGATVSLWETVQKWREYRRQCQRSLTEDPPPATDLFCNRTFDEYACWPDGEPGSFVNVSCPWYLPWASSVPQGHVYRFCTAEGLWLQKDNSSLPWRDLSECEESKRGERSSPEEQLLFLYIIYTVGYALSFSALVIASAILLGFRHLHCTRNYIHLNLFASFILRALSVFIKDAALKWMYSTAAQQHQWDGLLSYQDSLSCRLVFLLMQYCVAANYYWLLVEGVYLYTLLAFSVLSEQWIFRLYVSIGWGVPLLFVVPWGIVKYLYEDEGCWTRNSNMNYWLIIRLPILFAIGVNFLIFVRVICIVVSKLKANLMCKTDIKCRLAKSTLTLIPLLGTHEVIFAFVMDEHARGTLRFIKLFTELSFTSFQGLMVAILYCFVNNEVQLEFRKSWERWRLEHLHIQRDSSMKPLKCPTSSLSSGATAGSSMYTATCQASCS
Text for rat islets: Specifically, the pancreas of 8-week-old SD rats (Damul Science) was extracted, and islets were isolated.

`CCCCCCCCCC(=O)NCCCC[C@H](NC(=O)[C@H](CO)NC(=O)[C@@H]1CCCN1C(=O)CNC(=O)CNC(=O)[C@H](CC(N)=O)NC(=O)[C@H](CCCCN)NC(=O)[C@H](CC(C)C)NC(=O)[C@H](Cc1c[nH]c2ccccc12)NC(=O)[C@H](CSCC(=O)N[C@@H]1O[C@H](CO)[C@@H](O[C@@H]2O[C@H](CO)[C@@H](O[C@@H]3O[C@H](CO[C@H]4O[C@H](CO)[C@@H](O)[C@H](O)[C@@H]4O[C@@H]4O[C@H](CO)[C@@H](O[C@@H]5O[C@H](CO[C@]6(C(=O)OCc7ccccc7)C[C@H](O)[C@@H](NC(C)=O)[C@H]([C@H](O)[C@H](O)CO)O6)[C@H](O)[C@H](O)[C@H]5O)[C@H](O)[C@H]4NC(C)=O)[C@@H](O)[C@H](O[C@H]4O[C@H](CO)[C@@H](O)[C@H](O)[C@@H]4O[C@@H]4O[C@H](CO)[C@@H](O[C@@H]5O[C@H](CO[C@]6(C(=O)OCc7ccccc7)C[C@H](O)[C@@H](NC(C)=O)[C@H]([C@H](O)[C@H](O)CO)O6)[C@H](O)[C@H](O)[C@H]5O)[C@H](O)[C@H]4NC(C)=O)[C@@H]3O)[C@H](O)[C@H]2NC(C)=O)[C@H](O)[C@H]1NC(C)=O)NC(=O)[C@@H](NC(=O)[C@H](Cc1ccccc1)NC(=O)[C@H](CC(C)C)NC(=O)[C@H](CCCNC(=N)N)NC(=O)[C@@H](NC(=O)[C@H](C)NC(=O)[C@H](CSCC(=O)N[C@@H]1O[C@H](CO)[C@@H](O[C@@H]2O[C@H](CO)[C@@H](O[C@@H]3O[C@H](CO[C@H]4O[C@H](CO)[C@@H](O)[C@H](O)[C@@H]4O[C@@H]4O[C@H](CO)[C@@H](O[C@@H]5O[C@H](CO[C@]6(C(=O)OCc7ccccc7)C[C@H](O)[C@@H](NC(C)=O)[C@H]([C@H](O)[C@H](O)CO)O6)[C@H](O)[C@H](O)[C@H]5O)[C@H](O)[C@H]4NC(C)=O)[C@@H](O)[C@H](O[C@H]4O[C@H](CO)[C@@H](O)[C@H](O)[C@@H]4O[C@@H]4O[C@H](CO)[C@@H](O[C@@H]5O[C@H](CO[C@]6(C(=O)OCc7ccccc7)C[C@H](O)[C@@H](NC(C)=O)[C@H]([C@H](O)[C@H](O)CO)O6)[C@H](O)[C@H](O)[C@H]5O)[C@H](O)[C@H]4NC(C)=O)[C@@H]3O)[C@H](O)[C@H]2NC(C)=O)[C@H](O)[C@H]1NC(C)=O)NC(=O)[C@H](CCC(=O)O)NC(=O)[C@H](CCC(=O)O)NC(=O)[C@H](CCSC)NC(=O)[C@H](CCC(N)=O)NC(=O)[C@H](CCCCN)NC(=O)[C@H](CO)NC(=O)[C@H](CC(C)C)NC(=O)[C@H](CC(=O)O)NC(=O)[C@H](CO)NC(=O)[C@@H](NC(=O)[C@H](Cc1ccccc1)NC(=O)[C@@H](NC(=O)CNC(=O)[C@H](CCC(=O)O)NC(=O)CNC(=O)[C@@H](N)Cc1c[nH]cn1)[C@@H](C)O)[C@@H](C)O)C(C)C)[C@@H](C)CC)C(=O)O` [AGM-212(E17C-11 sugar & E24C-11 sugar)]: the “Emax (fold induction over basal)” value at human GLP-1R [1] is given as 9.7 ± 1.2 fold induction over basal. Further, the “Insulin secretion from rat islets” value is 6763.40 ± 32.83 pg/mL in the series with rat islets (10 nM analog, Table 4) and 14650.94 ± 3305.28 pg/mL in the series on rat islets (100 nM analog, Table 4).
On to `CCCCCCCCCC(=O)NCCCC[C@H](NC(=O)[C@H](CO)NC(=O)[C@@H]1CCCN1C(=O)CNC(=O)CNC(=O)[C@H](CSCC(=O)N[C@@H]1O[C@H](CO)[C@@H](O[C@@H]2O[C@H](CO)[C@@H](O[C@@H]3O[C@H](CO[C@H]4O[C@H](CO)[C@@H](O)[C@H](O)[C@@H]4O[C@@H]4O[C@H](CO)[C@@H](O[C@@H]5O[C@H](CO[C@]6(C(=O)OCc7ccccc7)C[C@H](O)[C@@H](NC(C)=O)[C@H]([C@H](O)[C@H](O)CO)O6)[C@H](O)[C@H](O)[C@H]5O)[C@H](O)[C@H]4NC(C)=O)[C@@H](O)[C@H](O[C@H]4O[C@H](CO)[C@@H](O)[C@H](O)[C@@H]4O[C@@H]4O[C@H](CO)[C@@H](O[C@@H]5O[C@H](CO[C@]6(C(=O)OCc7ccccc7)C[C@H](O)[C@@H](NC(C)=O)[C@H]([C@H](O)[C@H](O)CO)O6)[C@H](O)[C@H](O)[C@H]5O)[C@H](O)[C@H]4NC(C)=O)[C@@H]3O)[C@H](O)[C@H]2NC(C)=O)[C@H](O)[C@H]1NC(C)=O)NC(=O)[C@H](CCCCN)NC(=O)[C@H](CC(C)C)NC(=O)[C@H](Cc1c[nH]c2ccccc12)NC(=O)[C@H](CCC(=O)O)NC(=O)[C@@H](NC(=O)[C@H](Cc1ccccc1)NC(=O)[C@H](CC(C)C)NC(=O)[C@H](CCCNC(=N)N)NC(=O)[C@@H](NC(=O)[C@H](C)NC(=O)[C@H](CSCC(=O)N[C@@H]1O[C@H](CO)[C@@H](O[C@@H]2O[C@H](CO)[C@@H](O[C@@H]3O[C@H](CO[C@H]4O[C@H](CO)[C@@H](O)[C@H](O)[C@@H]4O[C@@H]4O[C@H](CO)[C@@H](O[C@@H]5O[C@H](CO[C@]6(C(=O)OCc7ccccc7)C[C@H](O)[C@@H](NC(C)=O)[C@H]([C@H](O)[C@H](O)CO)O6)[C@H](O)[C@H](O)[C@H]5O)[C@H](O)[C@H]4NC(C)=O)[C@@H](O)[C@H](O[C@H]4O[C@H](CO)[C@@H](O)[C@H](O)[C@@H]4O[C@@H]4O[C@H](CO)[C@@H](O[C@@H]5O[C@H](CO[C@]6(C(=O)OCc7ccccc7)C[C@H](O)[C@@H](NC(C)=O)[C@H]([C@H](O)[C@H](O)CO)O6)[C@H](O)[C@H](O)[C@H]5O)[C@H](O)[C@H]4NC(C)=O)[C@@H]3O)[C@H](O)[C@H]2NC(C)=O)[C@H](O)[C@H]1NC(C)=O)NC(=O)[C@H](CCC(=O)O)NC(=O)[C@H](CCC(=O)O)NC(=O)[C@H](CCSC)NC(=O)[C@H](CCC(N)=O)NC(=O)[C@H](CCCCN)NC(=O)[C@H](CO)NC(=O)[C@H](CC(C)C)NC(=O)[C@H](CC(=O)O)NC(=O)[C@H](CO)NC(=O)[C@@H](NC(=O)[C@H](Cc1ccccc1)NC(=O)[C@@H](NC(=O)CNC(=O)[C@H](CCC(=O)O)NC(=O)CNC(=O)[C@@H](N)Cc1c[nH]cn1)[C@@H](C)O)[C@@H](C)O)C(C)C)[C@@H](C)CC)C(=O)O` [AGM-212(E17C-11 sugar & N28C-11 sugar)], for which, on human GLP-1R [1], the “Emax (fold induction over basal)” value is on record as 9.8 ± 1.3 fold induction over basal. The “Insulin secretion from rat islets” value with rat islets (10 nM analog, Table 4) came out at 11250.94 ± 624.53 pg/mL; with rat islets (100 nM analog, Table 4) it was 22183.40 ± 830.19 pg/mL. The results for the solubility in “Solubility by HPLC” (H2O) and in “Solubility by HPLC” (PBS) were below 8300 µg/mL and below 9500 µg/mL, respectively.
Take `CCCCCCCCCC(=O)NCCCC[C@H](NC(=O)[C@H](CO)NC(=O)[C@@H]1CCCN1C(=O)CNC(=O)CNC(=O)[C@H](CC(N)=O)NC(=O)[C@H](CCCCN)NC(=O)[C@H](CC(C)C)NC(=O)[C@H](Cc1c[nH]c2ccccc12)NC(=O)[C@H](CCC(=O)O)NC(=O)[C@@H](NC(=O)[C@H](Cc1ccccc1)NC(=O)[C@H](CC(C)C)NC(=O)[C@H](CCCNC(=N)N)NC(=O)[C@@H](NC(=O)[C@H](C)NC(=O)[C@H](CSCC(=O)N[C@@H]1O[C@H](CO)[C@@H](O[C@@H]2O[C@H](CO)[C@@H](O[C@@H]3O[C@H](CO[C@H]4O[C@H](CO)[C@@H](O)[C@H](O)[C@@H]4O[C@@H]4O[C@H](CO)[C@@H](O[C@@H]5O[C@H](CO[C@]6(C(=O)OCc7ccccc7)C[C@H](O)[C@@H](NC(C)=O)[C@H]([C@H](O)[C@H](O)CO)O6)[C@H](O)[C@H](O)[C@H]5O)[C@H](O)[C@H]4NC(C)=O)[C@@H](O)[C@H](O[C@H]4O[C@H](CO)[C@@H](O)[C@H](O)[C@@H]4O[C@@H]4O[C@H](CO)[C@@H](O[C@@H]5O[C@H](CO[C@]6(C(=O)OCc7ccccc7)C[C@H](O)[C@@H](NC(C)=O)[C@H]([C@H](O)[C@H](O)CO)O6)[C@H](O)[C@H](O)[C@H]5O)[C@H](O)[C@H]4NC(C)=O)[C@@H]3O)[C@H](O)[C@H]2NC(C)=O)[C@H](O)[C@H]1NC(C)=O)NC(=O)[C@H](CCC(=O)O)NC(=O)[C@H](CCC(=O)O)NC(=O)[C@H](CCSC)NC(=O)[C@H](CCC(N)=O)NC(=O)[C@H](CCCCN)NC(=O)[C@H](CO)NC(=O)[C@H](CC(C)C)NC(=O)[C@H](CC(=O)O)NC(=O)[C@H](CO)NC(=O)[C@@H](NC(=O)[C@H](Cc1ccccc1)NC(=O)[C@@H](NC(=O)CNC(=O)[C@H](CCC(=O)O)NC(=O)CNC(=O)[C@@H](N)Cc1c[nH]cn1)[C@@H](C)O)[C@@H](C)O)C(C)C)[C@@H](C)CC)C(=O)O` [AGM-212(E17C-11 sugar)]: the “Emax (fold induction over basal)” value on human GLP-1R [1] is 10.1 ± 1.2 fold induction over basal. The “Insulin secretion from rat islets” value was found to be 7895.09 ± 2457.36 pg/mL in the series with rat islets (10 nM analog, Table 3) and 9523.02 ± 2852.08 pg/mL in the series on rat islets (100 nM analog, Table 3).
Regarding HGEGTFTSDLSKQMEEC(undeca‑saccharide)AVRLFIEWLKNGGPSK(Decanoyl) (reading uncertain) [AGM-212(E17C-11 sugar)], the “Emax (fold induction over basal), CRE-luciferase reporter” value with human GLP-1R [2] came to 10.1 fold induction over basal.
On the same count and under the same terms, the result for HGEGTFTSDLSKQMEEC(undeca‑saccharide)AVRLFIEWLKC(undeca‑saccharide)GGPSK(Decanoyl) (reading uncertain) [AGM-212(E17C-11 sugar & N28C-11 sugar)] reads 9.8 fold induction over basal; that for HGEGTFTSDLSKQMEEC(undeca‑saccharide)AVRLFIC(undeca‑saccharide)WLKNGGPSK(Decanoyl) (reading uncertain) [AGM-212(E17C-11 sugar & E24C-11 sugar)], 9.7 fold induction over basal.
